Results reported in ChEMBL document CHEMBL3865829 (Eur J Med Chem, 2016).

How the values were obtained:
A549 [1] = test: Antitumor activity against human A549 cells xenografted in BALB/c nude mouse assessed as tumor growth inhibition administered ig via oral gavage once daily for 14 consecutive days measured on day 30; type: functional, cell-based
[2] = Antitumor activity against human A549 cells xenografted in BALB/c nude mouse assessed as tumor volume at 10 mg/kg, ig administered via oral gavage once daily for 14 consecutive days measured on day 4 (reference value: 419.55 +/- 104.72 mm3); type: functional
[3] = Antitumor activity against human A549 cells xenografted in BALB/c nude mouse assessed as tumor volume at 10 mg/kg, ig administered via oral gavage once daily for 14 consecutive days measured on day 1 (reference value: 156.87 +/- 22.32 mm3); type: functional
[4] = Half life in rat microsomes; type: ADME, Microsome
[5] = Potency index, ratio of camptothecin GI50 to compound GI50 against human NCI60 cells; type: functional
[6] = Antitumor activity against human A549 cells xenografted in BALB/c nude mouse assessed as tumor volume at 10 mg/kg, ig administered via oral gavage once daily for 14 consecutive days measured on day 18 (reference value: 3045.91 +/- 854.27 mm3); type: functional
[7] = Antitumor activity against human Bel7404 cells xenografted in BALB/c nude mouse assessed as tumor volume at 10 mg/kg, ig administered via oral gavage once daily for 14 consecutive days measured on day 1 (reference value: 101.62 +/- 26.48 mm3); type: functional, BEL-7404
[8] = Antitumor activity against human A549 cells xenografted in BALB/c nude mouse assessed as tumor volume at 10 mg/kg, ig administered via oral gavage once daily for 14 consecutive days measured on day 15 (reference value: 2071.51 +/- 682.84 mm3); type: functional
[9] = Half life in Sprague-Dawley rat at 20 mg/kg administered via oral gavage as single dose by LCMS analysis; type: ADME, organism-based; conditions: in vivo
[10] = Ratio of Cmax in Sprague-Dawley rat to IC50 for human A549 cells
Mus musculus [11] = test: Toxicity in nude BALB/c mouse xenografted with human A549 cells assessed as body weight at 10 mg/kg, ig administered via oral gavage once daily for 14 consecutive days measured on day 11 (reference value: 26.11 +/- 1.06 g); type: organism-based; conditions: in vivo
[12] = Time at which maximum plasma concentration stays above in vitro IC50 for human A549 cells in Sprague-Dawley rat at 20 mg/kg, po administered as single dose; type: ADME, organism-based; conditions: in vivo
[13] = Potency index, ratio of paclitaxel GI50 to compound GI50 against human NCI60 cells; type: functional
Mus musculus [14] = test: Toxicity in nude BALB/c mouse xenografted with human A549 cells assessed as body weight at 10 mg/kg, ig administered via oral gavage once daily for 14 consecutive days measured on day 18 (reference value: 27.75 +/- 1.41 g); type: organism-based; conditions: in vivo
Mus musculus [15] = test: Toxicity in nude BALB/c mouse xenografted with human A549 cells assessed as mortality at 10 mg/kg, ig administered via oral gavage once daily for 14 consecutive days measured on day 30; type: organism-based; conditions: in vivo
[16] = Antitumor activity against human Bel7404 cells xenografted in BALB/c nude mouse assessed as tumor volume at 10 mg/kg, ig administered via oral gavage once daily for 14 consecutive days measured on day 10 (reference value: 425.92 +/- 102.32 mm3); type: functional, BEL-7404
Mus musculus [17] = test: Toxicity in nude BALB/c mouse xenografted with human A549 cells assessed as body weight at 10 mg/kg, ig administered via oral gavage once daily for 14 consecutive days measured on day 15 (reference value: 27.12 +/- 1.43 g); type: organism-based; conditions: in vivo
[18] = Cmax in Sprague-Dawley rat at 20 mg/kg administered via oral gavage as single dose by LCMS analysis; type: ADME, organism-based; design: dose 20 mg/kg, route oral; conditions: in vivo
A549 [19] = test: Inhibition of PI3K in human A549 cells assessed as reduction in AKT phosphorylation at threonine308 residues after 30 mins by Western blot analysis; type: cell-based
[20] = Antitumor activity against human Bel7404 cells xenografted in BALB/c nude mouse assessed as tumor volume at 10 mg/kg, ig administered via oral gavage once daily for 14 consecutive days measured on day 14 (reference value: 589.54 +/- 162.22 mm3); type: functional, BEL-7404
[21] = Oral bioavailability in Sprague-Dawley rat at 20 mg/kg administered via gavage as single dose by LCMS analysis; type: ADME, organism-based; conditions: in vivo
Mus musculus [22] = test: Toxicity in nude BALB/c mouse xenografted with human A549 cells assessed as body weight at 10 mg/kg, ig administered via oral gavage once daily for 14 consecutive days measured on day 1 (reference value: 24.38 +/- 0.76 g); type: organism-based; conditions: in vivo
Mus musculus [23] = test: Toxicity in nude BALB/c mouse xenografted with human A549 cells assessed as body weight at 10 mg/kg, ig administered via oral gavage once daily for 14 consecutive days measured on day 8 (reference value: 25.66 +/- 1.04 g); type: organism-based; conditions: in vivo
Mus musculus [24] = test: Toxicity in nude BALB/c mouse xenografted with human A549 cells assessed as body weight at 10 mg/kg, ig administered via oral gavage once daily for 14 consecutive days measured on day 4 (reference value: 24.77 +/- 0.93 g); type: organism-based; conditions: in vivo
[25] = Antitumor activity against human Bel7404 cells xenografted in BALB/c nude mouse assessed as tumor volume at 10 mg/kg, ig administered via oral gavage once daily for 14 consecutive days measured on day 3 (reference value: 176.17 +/- 57.63 mm3); type: functional, BEL-7404
[26] = AUC (0 to infinity) in Sprague-Dawley rat at 20 mg/kg administered via oral gavage as single dose by LCMS analysis; type: ADME, organism-based; design: dose 20 mg/kg, route oral, time infinity; conditions: in vivo
[27] = Antitumor activity against human A549 cells xenografted in BALB/c nude mouse assessed as tumor volume at 10 mg/kg, ig administered via oral gavage once daily for 14 consecutive days measured on day 11 (reference value: 1327.66 +/- 404.92 mm3); type: functional
[28] = Antitumor activity against human A549 cells xenografted in BALB/c nude mouse assessed as tumor volume at 10 mg/kg, ig administered via oral gavage once daily for 14 consecutive days measured on day 8 (reference value: 840.07 +/- 205.19 mm3); type: functional
A549 [29] = test: Inhibition of mTORC2 in human A549 cells assessed as reduction in AKT phosphorylation at serine473 residues after 30 mins by Western blot analysis; type: cell-based
[30] = Antitumor activity against human Bel7404 cells xenografted in BALB/c nude mouse assessed as tumor volume at 10 mg/kg, ig administered via oral gavage once daily for 14 consecutive days measured on day 17 (reference value: 747.40 +/- 169.75 mm3); type: functional, BEL-7404
[31] = Cmax in Sprague-Dawley rat at 2 mg/kg, iv by LCMS analysis; type: ADME, organism-based; design: dose 2 mg/kg, route intravenous; conditions: in vivo
[32] = Cytotoxicity against human A549 cells after 72 hrs by MTT assay; type: functional, cell-based; conditions: A549, 72 h
[33] = Antitumor activity against human Bel7404 cells xenografted in BALB/c nude mouse assessed as tumor growth inhibition at 10 mg/kg, ig administered via oral gavage once daily for 14 consecutive days measured on day 29; type: functional; conditions: BEL-7404, po, 696 h, read-out: TGI
[34] = AUC (0 to infinity) in Sprague-Dawley rat at 2 mg/kg, iv by LCMS analysis; type: ADME, organism-based; design: dose 2 mg/kg, time infinity, route intravenous; conditions: in vivo
[35] = Antitumor activity against human Bel7404 cells xenografted in BALB/c nude mouse assessed as tumor volume at 10 mg/kg, ig administered via oral gavage once daily for 14 consecutive days measured on day 7 (reference value: 284.68 +/- 74.36 mm3); type: functional, BEL-7404
cells = conditions: Homo sapiens, HCT-116, 72 h
[36] = Antitumor activity against human A549 cells xenografted in BALB/c nude mouse assessed as tumor growth inhibition at 10 mg/kg, ig administered via oral gavage once daily for 14 consecutive days measured on day 30 relative to control; type: functional; conditions: 720 h, read-out: TGI

COc1ncc(-c2ccc3nccc(-c4ccc(CN(C)C)cc4)c3c2)cc1NS(=O)(=O)c1ccc(F)cc1F
TGI (A549 [1]): Dose-dependent effect
Activity [2]: 224.6 mm3
Activity [3]: 149.23 mm3
half-life [4]: 0.767 h
RatioGI50 [5]: 2
Activity [6]: 748.11 mm3
Activity [7]: 90.39 mm3
Activity [8]: 536.2 mm3
half-life [9]: 4.41 h
Ratio [10]: >2800
Activity (Mus musculus [11]): 23.77 g
Time [12]: 0.5 h
RatioGI50 [13]: 2
Activity (Mus musculus [14]): 23.92 g
Activity (Mus musculus [15]): Non-Toxic
Activity [16]: 152.31 mm3
Activity (Mus musculus [17]): 23.42 g
Cmax [18]: 7120 ng/mL
inhibition (A549 [19]): Dose-dependent effect
Activity [20]: 187.5 mm3
bioavailability [21]: 95%
Activity (Mus musculus [22]): 25.13 g
Activity (Mus musculus [23]): 24.23 g
Activity (Mus musculus [24]): 24.17 g
Activity [25]: 123.3 mm3
AUC(0-inf) [26]: 35600 ng·h/mL
Activity [27]: 432.38 mm3
Activity [28]: 330.06 mm3
inhibition (A549 [29]): Dose-dependent effect
Activity [30]: 220.21 mm3
Cmax [31]: 1000 ng/mL
IC50 [32]: 4.4 nM
inhibition in vivo at 10 mg/kg [33]: 70.6%
AUC(0-inf) [34]: 3740 ng·h/mL
Activity [35]: 135.38 mm3
IC50 (cells): 3 nM
inhibition in vivo at 10 mg/kg [36]: 73.5%
